# Patent US8658646B2, “Pyrrolopyrazine kinase inhibitors” (Hoffmann-LaRoche Inc., priority 2011, dated 2014)
# Where a name gives a salt, the structure may show the parent alone.
# Tests used:
# [1] = target: T1, JAK3: Recombinant human kinase domain (Homo sapiens, UniProt P52333); assay: Determination of IC50 of Janus Kinase (JAK) inhibition, radioactive end-point 33P-ATP assay, JAK3; type: biochemical; settings: ATP 1.5 uM, peptide 50 uM, 20 minutes, read-out: JAK3-INHIB-DR/v1~NO ADDITIVE~Enzyme_Conc = 100
# T1 construct: JAK3: Recombinant human kinase domain from Millipore (Cat #14-629) or prepared; purchased Millipore 14-629
# Method: Determination of IC50 of Janus Kinase (JAK) Inhibition:
# Assay conditions used are described below: • Assay Buffer: JAK Kinase Buffer: 50 mM Hepes [pH 7.2], 10 mM MgCl2, 1 mM DTT, 1 mg/ml BSA. The assay was carried out in this buffer. • Assay Format The kinase activity of all three JAK kinases was measured using a radioactive, end-point assay and with trace amounts of ^33P-ATP. The assays were carried out in 96-well polypropylene plates. Experimental Method:
# All concentrations were final in the reaction mixture and all incubations were carried at room temperature. […] Final concentration of DMSO in the reaction was 10%. • 2) Compounds were preincubated with enzyme (0.5 nM JAK3 (commercially available), 0.2 nM JAK3 (prepared), 1 nM JAK2, 5 nM JAK1) for 10 minutes. • 3) Reactions were initiated by the addition of a cocktail of the two substrates (ATP and peptide premixed in the JAK Kinase Buffer). […] JAK1 assay was carried out at an ATP concentration of 10 uM and a peptide concentration of 50 uM. • 4) The duration of the assay for JAK2 and JAK3 is 20 minutes. JAK1 assay was carried out for 40 minutes. With all three enzymes, reactions were terminated by the addition of 0.5M EDTA to a final concentration of 100 mM. • 5) 25 ul of terminated reactions were transferred to 150 ul of a 7.5% (v/v) slurry of streptavidin-coated sepharose beads in MgCl2- and CaCl2-free 1× Phosphate Buffered Saline containing 50 mM of EDTA in 96-well, 1.2 um MultiScreen-BV filter plates. • 6) After a 30-minute incubation, the beads were washed under vacuum with the following buffers: • a. 3 to 4 washes with 200 ul of 2M NaCl. • b. 3 to 4 washes with 200 ul of 2M NaCl plus 1% (v/v) phosphoric acid. • c. 1 wash with water. • 7) Washed plates were dried in a 60° C. oven for between 1 to 2 hours. • 8) 70 ul of Microscint 20 scintillation fluid was added to each well of filter plates and after at least 30 minutes of incubation, radioactive counts were measured in a Perkinelmer microplate scintillation counter.
# [2] = target: T2, recombinant human SYK360-635 (Homo sapiens, UniProt P43405); assay: Determination of IC50 of Spleen Tyrosine Kinase (SYK) inhibition, 33P ATP filtration assay; type: biochemical; settings: SYK aa 360-635 0.5 nM; ATP 20 μM, peptide 5 μM, 0.1% BSA; read-out: SYK_ENZYME_FILTRATION/v1, BSA
# T2 construct: made in house
# Method: All concentrations were final in the reaction mixture and all incubations were carried at room temperature. […] SYK Assay Information Determination of IC50 of Spleen Tyrosine Kinase (SYK) Inhibition:
# SYK kinase assay is a standard kinase assay adapted to a 96 well plate format. This assay is performed in 96-well format for IC50 determination with 8 samples which represented 10 half log dilutions and a 40 μL reaction volume. The assay measures the incorporation of radiolabeled ^33P γATP into an N-terminally biotinylated peptide substrate, derived from naturally occurring phosphoacceptor consensus sequence (Biotin-11aa DY*E). […] Experimental Method:
# DMSO and the mixture was incubated for 10 min at RT.
# The kinase reaction was initiated by the addition of 10 μL 4× substrate cocktail containing the DYE peptide substrate [0 or 5 μM], ATP [20 μM] and ^33PγATP [2 μCi/r×n]. After incubation at 30° C. for 15 min, the reaction was terminated by the transfer of 25 μL pf the reaction sample to a 96 well 0.65 μm Millipore MADVNOB membrane/plate containing 200 μL 5 mM EDTA and 20% Streptavidine coated beads in PBS.
# The unbound radionucleotides were washed under vacuum with 3×250 μL 2M NaCl; 2×250 μL 2M NaCl+1% phosphoric acid; 1×250 μL H2O. After the last wash membrane/plates were transferred to an adaptor plate, heat dried for 15 min at 60° C., and 50 μL scintillation cocktail was added to each well and 4 h later the amount of radioactivity was counted in a top counter.
# T1 sequence (P52333 822-1111 limits assumed): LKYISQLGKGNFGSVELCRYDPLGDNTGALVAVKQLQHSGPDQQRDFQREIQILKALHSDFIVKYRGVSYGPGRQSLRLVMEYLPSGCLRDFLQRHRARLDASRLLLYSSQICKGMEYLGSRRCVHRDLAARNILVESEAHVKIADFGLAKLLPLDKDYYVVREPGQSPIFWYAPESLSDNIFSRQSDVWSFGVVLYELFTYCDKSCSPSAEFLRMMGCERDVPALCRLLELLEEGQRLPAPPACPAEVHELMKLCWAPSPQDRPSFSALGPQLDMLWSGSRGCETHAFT
Structure (SMILES),IC50 [1],IC50 [2]
"C[C@H](NC(=O)c1c[nH]c2ncc(-c3nn(C)c4ccc(Cl)cc34)nc12)C(C)(C)C [Example I-11, 2-(5-Chloro-1-methyl-1H-indazol-3-yl)-5H-pyrrolo[2,3-b]pyrazine-7-carboxylic acid ((S)-1,2,2-trimethyl-propyl)-amide]",1.77 nM,–
"Cc1ccc2c(-c3cnc4[nH]cc(C(=O)N[C@H](C)C(=O)N5CC(C#N)C5)c4n3)nn(C)c2n1 [Example I-89, 2-(1,6-Dimethyl-1H-pyrazolo[3,4-b]pyridin-3-yl)-5H-pyrrolo[2,3-b]pyrazine-7-carboxylic acid [(R)-2-(3-cyano-azetidin-1-yl)-1-methyl-2-oxo-ethyl]-amide]",1.09 nM,–
"Cn1nc(-c2cnc3[nH]cc(C(=O)N[C@H](c4ccc(Br)cc4)C(F)(F)F)c3n2)c2ccc(F)cc21 [Example I-211, 2-(6-Fluoro-1-methyl-1H-indazol-3-yl)-5H-pyrrolo[2,3-b]pyrazine-7-carboxylic acid [(R)-1-(4-bromo-phenyl)-2,2,2-trifluoro-ethyl)-amide]",> 1000 nM,–
"COC[C@H](C)NC(=O)c1c[nH]c2ncc(-c3nn(CCN4CCOCC4)c4cc(F)ccc34)nc12 [Example I-238, 2-[6-Fluoro-1-(2-morpholin-4-yl-ethyl)-1H-indazol-3-yl]-5H-pyrrolo[2,3-b]pyrazine-7-carboxylic acid ((S)-2-methoxy-1-methyl-ethyl)-amide]",0.815 nM,–
"C[C@@H](NC(=O)c1c[nH]c2ncc(-c3nn(C)c4cc(Cl)ccc34)nc12)C(=O)N1CC[C@H](F)C1 [Example I-118, 2-(6-Chloro-1-methyl-1H-indazol-3-yl)-5H-pyrrolo[2,3-b]pyrazine-7-carboxylic acid [(R)-2-((S)-3-fluoro-pyrrolidin-1-yl)-1-methyl-2-oxo-ethyl]-amide]",2.01 nM,–
"C[C@@H](NC(=O)c1c[nH]c2ncc(-c3nn(CCN(C)C)c4cc(Cl)ccc34)nc12)C(=O)N1CC(C#N)C1 [Example I-230, 2-[6-Chloro-1-(2-dimethylamino-ethyl)-1H-indazol-3-yl]-5H-pyrrolo[2,3-b]pyrazine-7-carboxylic acid [(R)-2-(3-cyano-azetidin-1-yl)-1-methyl-2-oxo-ethyl]-amide]",12.3 nM,–
"C[C@@H](NC(=O)c1c[nH]c2ncc(-c3nn(C)c4cc(Cl)ccc34)nc12)C(=O)N1CC[C@@H](F)C1 [Example I-119, 2-(6-Chloro-1-methyl-1H-indazol-3-yl)-5H-pyrrolo[2,3-b]pyrazine-7-carboxylic acid [(R)-2-((R)-3-fluoro-pyrrolidin-1-yl)-methyl-2-oxo-ethyl]-amide]",3.64 nM,–
"C[C@@H](NC(=O)c1c[nH]c2ncc(-c3nn(CCO)c4cc(Cl)ccc34)nc12)C(=O)N1CC(C#N)C1 [Example I-90, 2-[6-Chloro-1-(2-hydroxy-ethyl)-1H-indazol-3-yl]-5H-pyrrolo[2,3-b]pyrazine-7-carboxylic acid [(R)-2-(3-cyano-azetidin-1-yl)-1-methyl-2-oxo-ethyl]-amide]",3.83 nM,–
"C[C@@H](NC(=O)c1c[nH]c2ncc(-c3nc(S(C)(=O)=O)n4cc(F)ccc34)nc12)C(=O)N1CC(C#N)C1 [Example I-42, 2-(6-Fluoro-3-methanesulfonyl-imidazo[1,5-a]pyridin-1-yl)-5H-pyrrolo[2,3-b]pyrazine-7-carboxylic acid [(R)-2-(3-cyano-azetidin-1-yl)-1-methyl-2-oxo-ethyl]-amide]",1.25 nM,–
"C[C@@H](NC(=O)c1c[nH]c2ncc(-c3ncn4cc(F)ccc34)nc12)c1ncco1 [Example I-58, 2-(6-Fluoro-imidazo[1,5-a]pyridin-1-yl)-5H-pyrrolo[2,3-b]pyrazine-7-carboxylic acid ((R)-1-oxazol-2-yl-ethyl)-amide]",2.31 nM,–
"COC[C@@H](NC(=O)c1c[nH]c2ncc(-c3nn(C)c4cc(Cl)ccc34)nc12)C(=O)N1CC(F)C1 [Example I-174, 2-(6-Chloro-1-methyl-1H-indazol-3-yl)-5H-pyrrolo[2,3-b]pyrazine-7-carboxylic acid [(R)-2-(3-fluoro-azetidin-1-yl)-1-methoxymethyl-2-oxo-ethyl]-amide]",1.09 nM,–
"C[C@@H](NC(=O)c1c[nH]c2ncc(-c3nn(C)c4cc(Cl)ccc34)nc12)[C@@H]1C[C@@H]1C#N (single isomer, unassigned) [Example I-206]",17.6 nM,–
"CC(O)Cn1nc(-c2cnc3[nH]cc(C(=O)N[C@H](C)C(=O)N4CC(C#N)C4)c3n2)c2ccc(Cl)cc21 (stereo partly drawn) [Example I-95, 2-[6-Chloro-1-(2-hydroxy-propyl)-1H-indazol-3-yl]-5H-pyrrolo[2,3-b]pyrazine-7-carboxylic acid [(R)-2-(3-cyano-azetidin-1-yl)-1-methyl-2-oxo-ethyl]-amide]",4.83 nM,–
"Cc1ccc2c(-c3cnc4[nH]cc(C(=O)NC(C)(C)CO)c4n3)nn(CCN(C)C)c2c1 [Example I-426, 2-[1-(2-Dimethylamino-ethyl)-6-methyl-1H-indazol-3-yl]-5H-pyrrolo[2,3-b]pyrazine-7-carboxylic acid (2-hydroxy-1,1-dimethyl-ethyl)-amide]",–,57.4 nM
"Cn1ncc2c(-c3cnc4[nH]cc(C(=O)NC(C)(C)C)c4n3)cccc21 [Example I-451, N-tert-Butyl-2-(1-methyl-1H-indazol-4-yl)-5H-pyrrolo[3,2-b]pyrazine-7-carboxamide hydrochloride]",–,4.8 nM
"CC(C)(C)NC(=O)c1c[nH]c2ncc(-c3nn(CC4CC4)c4ccc(OC(F)F)cc34)nc12 [Example I-351, 2-(1-Cyclopropylmethyl-5-difluoromethoxy-1H-indazol-3-yl)-5H-pyrrolo[2,3-b]pyrazine-7-carboxylic acid tert-butylamide]",–,18.4 nM
"CC(C)(C)NC(=O)c1c[nH]c2ncc(-c3nn(CCCN4CC(O)C4)c4ccc(OC(F)F)cc34)nc12 [Example I-300, 2-{5-Difluoromethoxy-1-[3-(3-hydroxy-azetidin-1-yl)-propyl]-1H-indazol-3-yl}-5H-pyrrolo[2,3-b]pyrazine-7-carboxylic acid tert-butylamide]",–,3.1 nM
"CC(O)CCn1nc(-c2cnc3[nH]cc(C(=O)NC(C)(C)CO)c3n2)c2ccc(F)cc21 (centres unmarked) [Example I-462, 2-(6-Fluoro-1-(3-hydroxybutyl)-1H-indazol-3-yl)-N-(1-hydroxy-2-methylpropan-2-yl)-5H-pyrrolo[3,2-b]pyrazine-7-carboxamide]",–,17.6 nM
"Cn1nc(-c2cnc3[nH]cc(C(=O)NC4CCCC(N)C4)c3n2)c2ccc(Cl)cc21 (centres unmarked) [Example I-403, 2-(6-Chloro-1-methyl-1H-indazol-3-yl)-5H-pyrrolo[2,3-b]pyrazine-7-carboxylic acid (3-amino-cyclohexyl)-amide]",–,13.6 nM
"CNC(=O)Cn1nc(-c2cnc3[nH]cc(C(=O)NC(C)(C)C)c3n2)c2cc(OC(F)F)ccc21 [Example I-354, 2-(5-Difluoromethoxy-1-methylcarbamoylmethyl-1H-indazol-3-yl)-5H-pyrrolo[2,3-b]pyrazine-7-carboxylic acid tert-butylamide]",–,14.4 nM
"Cc1cccc2c(-c3cnc4[nH]cc(C(=O)NC(C)(C)CO)c4n3)n[nH]c12 [Example I-372, 2-(7-Methyl-1H-indazol-3-yl)-5H-pyrrolo[2,3-b]pyrazine-7-carboxylic acid (2-hydroxy-1,1-dimethyl-ethyl)-amide]",–,5.12 nM
"COCC(COC)NC(=O)c1c[nH]c2ncc(-c3nn(C)c4cc(Cl)ccc34)nc12 [Example I-166, 2-(6-Chloro-1-methyl-1H-indazol-3-yl)-5H-pyrrolo[2,3-b]pyrazine-7-carboxylic acid (2-methoxy-1-methoxymethyl-ethyl)-amide]",–,106 nM
"Cn1nc(-c2cnc3[nH]cc(C(=O)N[C@H]4C[C@@H](N)C4)c3n2)c2ccc(F)cc21 [Example I-271, 2-(6-Fluoro-1-methyl-1H-indazol-3-yl)-5H-pyrrolo[2,3-b]pyrazine-7-carboxylic acid (cis-3-amino-cyclobutyl)-amide]",–,30.3 nM
"COc1ccc2c(c1)c(-c1cnc3[nH]cc(C(=O)NC(C)(C)C)c3n1)nn2C [Example I-287, 2-(5-Methoxy-1-methyl-1H-indazol-3-yl)-5H-pyrrolo[2,3-b]pyrazine-7-carboxylic acid tert-butylamide]",–,3.22 nM
"Cc1ccc2c(-c3cnc4[nH]cc(C(=O)NC(C)(C)CO)c4n3)nn(C)c2c1 [Example I-368, 2-(1,6-Dimethyl-1H-indazol-3-yl)-5H-pyrrolo[2,3-b]pyrazine-7-carboxylic acid (2-hydroxy-1,1-dimethyl-ethyl)-amide]",–,8.95 nM
"Cn1nc(-c2cnc3[nH]cc(C(=O)NC4(CO)CC4)c3n2)c2ccc(F)cc21 [Example I-374, 2-(6-Fluoro-1-methyl-1H-indazol-3-yl)-5H-pyrrolo[2,3-b]pyrazine-7-carboxylic acid (1-hydroxymethyl-cyclopropyl)-amide]",–,7.65 nM
"CC(C)(C)NC(=O)c1c[nH]c2ncc(-n3ncc4cc(C(F)(F)F)ccc43)nc12 [Example I-337, 2-(5-Trifluoromethyl-indazol-1-yl)-5H-pyrrolo[2,3-b]pyrazine-7-carboxylic acid tert-butylamide]",–,595 nM
"Cn1cc(Cn2nc(-c3cnc4[nH]cc(C(=O)NC(C)(C)C)c4n3)c3cc(OC(F)F)ccc32)cn1 [Example I-274, 2-[5-Difluoromethoxy-1-(1-methyl-1H-pyrazol-4-ylmethyl)-1H-indazol-3-yl]-5H-pyrrolo[2,3-b]pyrazine-7-carboxylic acid tert-butylamide]",–,2.5 nM
"C[C@H](NC(=O)c1c[nH]c2ncc(-c3nn(C)c4cc(Cl)ccc34)nc12)c1ccccc1 [Example I-389, 2-(6-Chloro-1-methyl-1H-indazol-3-yl)-5H-pyrrolo[2,3-b]pyrazine-7 carboxylic acid ((S)-1-phenyl-ethyl)-amide]",–,183 nM
